Here are results for nine compounds from patent US10066025B2, “Compositions and methods for detecting, treating and preventing diseases and disorders” (YALE UNIVERSITY, priority 2012, dated 2018).

The subject of experiment [1] is renal ischemia/reperfusion (IR) injury. In words: Murine model of renal ischemia/reperfusion (IR) injury, plasma creatinine. It is filed as in vivo, mice. As to conditions: for effect of ERK or PI3K/AKT inhibitor pretreatment on protective action of RP-H220 / protection against ischemic AKI (renal injury, plasma creatinine at 24 hr): WT mice; for effect of ERK or PI3K/AKT inhibitor pretreatment on protective action of RP-H220: 30 min renal IR; for severity of AKI, inhibitor alone without the peptides: ischemic WT mice; for renal protection (plasma creatinine): 5 mg/kg i.p., 30 min. renal IR; for protection against ischemic AKI (renal injury, plasma creatinine at 24 hr): renalase peptides 100 μg subcutaneous 10 to 30 min prior to 30 min renal ischemia. As for the experimental part: Adult male renalase deficient (KO) mice (Wu et al., 2011, Kidney Int 79: 853-860) on a C57BL/6 background were subjected to renal ischemia/reperfusion (IR) as described (Kim et al., 2009, Kidney Int 75: 809-823; Kim et al., 2010, Am J Physiol Renal Physiol 299(2):F347-58). Renalase KO or wild type (WT) mice (C57BL/6 from Harlan Labs, Indianapolis, Ind.) were subjected to sham-operation or to 20 min. (moderate) or 30 min. (severe) renal ischemia and 24 hr. reperfusion. To test the renal protective effects of recombinant human renalase, mice were pretreated with saline (vehicle) or with recombinant renalase (0.5, 1.5 or 4.5 mg/kg, s.c.) 10 min. prior to 30 min. renal ischemia. It was also tested whether renalase treatment after completion of renal ischemia also provides renal protection. Separate cohorts of mice were treated with saline or with renalase (1.5 mg/kg, s.c.) 30 min. or 60 min. after reperfusion of the ischemic kidney. To test whether blocking alpha receptors would mimic the renal protective effects of human recombinant renalase administration, phentolamine (an alpha receptor antagonist, 5 mg/kg, i.p.) was given in some mice 15 min. before renal ischemia.
Plasma creatinine was measured as described with an enzymatic creatinine reagent kit according to the manufacturer's instructions (Thermo Fisher Scientific, Waltham, Mass.) (Slot, 1965, J Clin Lab Invest 17: 381-387).
After animal care and use committee approval, adult male C57BL/6 (Harlan Labs, Indianapolis, Ind.) were subjected to sham-operation or to 30 minutes of renal ischemia followed by 24 hrs of reperfusion as previously described (Lee et al., 2004, American journal of physiology. Renal physiology 286:F298-306). To test the renal protective effects of renalase peptides (RP-220, RP-H220 and RP-224), mice were pretreated with saline (vehicle) or with renalase peptides (100 μg subcutaneous) 10 to 30 minutes prior to renal ischemia.
Blood was collected from mice anesthetized with isoflurane via cardiac puncture into a heparinized syringe and was subsequently centrifuged to separate plasma. Samples were submitted to the Yale O'Brien Kidney Center for measurement of BUN and creatinine. Plasma creatinine was measured either by an enzymatic creatinine reagent kit according to the manufacturer's instructions (Thermo Fisher Scientific, Waltham, Mass.) or by HPLC. These methods of creatinine measurement largely eliminate the interferences from mouse plasma chromagens, known to occur with the Jaffe method.

Another experiment relates to systemic blood pressure. In words: Blood pressure and heart rate in anesthetized mice. The class given is in vivo. As to conditions: for effect on systemic blood pressure: IV and subcutaneous administration, mice. As for the experimental part: As in 14A, except that RP-H220 is injected; no significant changes in blood pressure (FIG. 14B). Effect of a single intravenous injection of RP-220 (squares) and RP-H220 (diamonds) on heart rate in wild type mice (FIG. 14C).
FIG. 21 depicts the results of experiments examining the effect of RP-220 injection on blood pressure. A single subcutaneous injection of RP-220 (n=3) or buffer (n=2) in anesthetized wild type mice; BP pressure is recorded continuously; RP-220 is given at time 0; each data point represents the mean pressure; the standard error of the means are shown.
Systolic and diastolic pressure and heart rate were measured in anesthetized mice as previously described (Desir et al., 2012, J Am Heart Assoc. 1:e002634).

Experiment [2] deals with PI3K/AKT and MAPK pathways. In words: AKT and MAPK signaling and Bcl-2 expression by western blot. The class given is cell-based, human. To be noted: HK-2 cells in culture. As for the experimental part: FIG. 12, comprising FIGS. 12A through 12E, is a set of images and graphs showing renalase upregulates Bcl-2, activates PI3K/AKT, ERK, p38, and inhibits JNK. Western blot analysis; P− indicates phosphorylated, activated proteins; signals normalized to GAPDH loading control, then changes in protein phosphorylation (increase=activation, decrease=inhibition) from time 0 are calculated. FIG. 12A: HK-2 and HUVEC cells incubated with renalase for 24 hrs; FIG. 12B: Western blot of time course of AKT and MAPK signaling by renalase, HK-2 cells incubated with renalase for indicated time; changes over baseline in 4c-d are significant (p<0.05); FIG. 12C: Activation of AKT(T308), AKT(5473) and ERK; FIG. 12D: Inhibition of JNK; FIG. 12E: Marked and sustained (60 min) upregulation of p38 by renalase in the presence of cisplatin, western blot for time course, REN=renalase, CP=cisplatin.
MAPK signaling by renalase and renalase peptides. Western blot analysis; ERK: Extracellular signal-Regulated Kinase 1 and 2; JNK: c-Jun N-terminal Kinases; AKT: protein kinase B; p-indicates phosphorylated, activated proteins; representative blot, n=3 (FIG. 20A). Renalase activates AKT (FIG. 20B). Western blot analysis; P− indicates phosphorylated, activated proteins Representative blot, n=3 (FIG. 20B, left panel). Signals normalized to GAPDH loading control; n=3, change over baseline statistically significant (P<0.05) from 1-60 min for ERK, p38 and AKT (T308), and at 30 min only for AKT (S473) (FIG. 20B, right panel). ERK or AKT inhibition abrogates protective effect of RP-H220 (FIG. 20C). Plasma creatinine levels from mice subjected to sham-surgery or to renal ischemia and reperfusion (IR); Renalase WT mice were subjected to sham-surgery or to 30 min renal IR. For mice subjected to renal IR, RP-H220 or vehicle (saline) was injected 10 min prior to renal ischemia. Some animals were pretreated with either the ERK inhibitor PD98059 or the PI3K/AKT inhibitor wortmanin. (N=6-8 per group). *: P<0.05 vs. vehicle-treated mice subjected to sham-surgery; #: P<0.05 vs. vehicle-treated WT mice subjected to renal IR (FIG. 20C).
Background: Immunoblotting shows a protein as a band on a membrane.

Experiment [3] deals with HK-2 cells. In words: HK-2 cell necrosis induced with 2 mM H2O2 (LDH release). It is filed as cell-based, human. As for the experimental part:
(§1) HK2 cells (human proximal tubular line) obtained from ATTC (Manassas, Va., USA) were cultured in DMEM/F12 supplemented with glutamine, 10% FBS and antibiotics, and were maintained at 37° C. in 5% CO2. Cells were exposed to cisplatin (20 μM) in the presence or absence of renalase for 24 hrs, and cell viability was assessed by the WST1 method (Roche Applied Science, Germany). Cells were then harvested in RIPA buffer (20 mM Tris-HCl pH 7.5, 150 mM NaCl, 1 mM Na2EDTA, 1 mM EGTA, 1% NP-40, 1% sodium deoxycholate, 2.5 mM sodium pyrophosphate, 1 mM β-glycerophosphate, 1 mM Na3VO4, 1 μg/ml leupeptin) supplemented with a protease and phosphatase inhibitor cocktail (Roche Applied Science, Germany). Proteins were separated by SDS-PAGE and Western blotting was carried out using the following antibodies: anti-renalase monoclonal (Desir et al., 2012, J Am Heart Assoc. 1:e002634; (Lee et al., 2013, J Am Soc Nephrol 24:445-455); anti caspase 3 (Cell Signaling Technology, MA, USA) and anti Bcl2 (Thermo Scientific, USA). Necrotic injury in HK-2 cells (ATCC, Manassas, Va.) was induced with exposure to 2 mM H2O2 for 2-8 hr and lactate dehydrogenase (LDH) released into cell culture media was measured as described using a commercial LDH assay kit (Promega, Madison, Wis.) (Lee and Emala, 2002, American journal of physiology. Renal physiology 282:F844-852).
On the technique in general: LDH in the medium is a marker of cell lysis.

The subject of experiment [4] is HK-2 cells. In words: HK-2 cell cisplatin toxicity (WST-1 viability, western blot). The class given is cell-based, human. To be noted: 20 μM cisplatin, 24 hrs. As for the experimental part: Cultured HK-2 cells were incubated with 20 μM cisplatin for 24 hours with and without recombinant renalase. Renalase expression was examined by Western blot and cell viability (mitochondrial integrity) was determined spectrophotometrically using WST-1, a tetrazolium salt that is cleaved, by mitochondrial dehydrogenases of metabolically active and viable cells, to formazan (420-480 nm) (Boehringer Mannheim, Germany).
as §1

Consider `COc1cccc(-c2cc(=O)c3ccccc3o2)c1N` [PD98059, 2′-amino 3′ methoxyflavone, reference compound], for which, in experiment [1], the “effect of ERK or PI3K/AKT inhibitor pretreatment on protective action of RP-H220” value was “completely abrogated” and the “severity of AKI, inhibitor alone without the peptides” value is recorded as “had no effect on the severity of AKI”.
With `Cc1ccc(N(CC2=NCCN2)c2cccc(O)c2)cc1` [Phentolamine, reference compound], the figures for the “renal protection (plasma creatinine)” value in experiment [1] (renalase KO mice) and in experiment [1] (renalase WT mice) were “protected renalase KO mice” and “produced significant renal protection”, respectively.
For the compound `COC[C@H]1OC(=O)c2coc3c2[C@@]1(C)C1=C(C3=O)[C@@H]2CCC(=O)[C@@]2(C)C[C@H]1OC(C)=O` [wortmanin, reference compound], in experiment [1], the “effect of ERK or PI3K/AKT inhibitor pretreatment on protective action of RP-H220” value was “A similar result was obtained” and the “severity of AKI, inhibitor alone without the peptides” value is “had no effect on the severity of AKI”.
Regarding “RP 19: renalase peptide, SEQ ID NO: 8, LLRRQTSGPLYLAVWDKAED (listed as Homo sapiens)”, the “effect on systemic blood pressure” value in the experiment with systemic blood pressure is “no effect on BP”.
For the compound “RP 128: renalase peptide, SEQ ID NO: 7, FRHRVTQINLRDDKWEVSKQ (listed as Homo sapiens)”, the “effect on systemic blood pressure” value with systemic blood pressure is “no effect on BP”.
Consider “RP 220 scrambled: scrambled RP-220, SEQ ID NO: 6, CSKRIFKVISSIEDNNERG (listed as Homo sapiens) [reference compound]”, for which the “AKT and MAPK signaling (phosphorylation of ERK, p38, AKT)” value is “did not activate the AKT and MAPK signaling” in experiment [2] (listed as RP-Scr220); “not” in experiment [2] (listed as scrambled RP H220). For the same compound, in the experiment on systemic blood pressure, the “effect on systemic blood pressure” value is on record as “no effect on BP”. The “effect on blood pressure and heart rate” value with systemic blood pressure (anesthetized WT mice) is “no effect on blood pressure and heart rate”.
With “RP 220: renalase peptide, amino acids 220-239, SEQ ID NO: 3, CIRFVSIDNKKRNIESSEIG (listed as Homo sapiens)”, the “protection against ischemic AKI (renal injury, plasma creatinine at 24 hr)” value (“protection against ischemic AKI” for short) in experiment [1] is “less effective”. In experiment [1] (listed as RP-220), the “protection against ischemic AKI” value is “reduced renal injury”. Besides, in the experiment on HK-2 cells [3] (at 2 and 4 hrs), the “necrosis induced with 2 mM H2O2” value is listed as “significantly reduced necrosis”. The “cell survival / protection against cisplatin toxicity” value in the experiment on HK-2 cells [4] is given as “improved HK-2 cell survival”. Also, the “AKT and MAPK signaling (phosphorylation of ERK, p38, AKT)” value in experiment [2] is “rapid and transient phosphorylation”. Moreover, in the experiment on systemic blood pressure, the “effect on systemic blood pressure” value is “marked and sustained effect on systemic blood pressure”. The “mean blood pressure decrease at 15 min” value in the experiment on systemic blood pressure (WT mice, n=4, P=NS) came to 11.9±0.9 mmHg. In the experiment on systemic blood pressure (anesthetized WT mice), the “blood pressure after single intravenous injection” value was “profound fall in blood pressure”, the “blood pressure after subcutaneous administration” value is listed as “decreased blood pressure”, the “delay in the onset of fall in blood pressure after subcutaneous administration” value lay in the range of 30 to 60 min and the “duration of fall in blood pressure after intravenous injection” value is given as “up to two hours”. In the experiment on systemic blood pressure (anesthetized WT mice), the heart rate increase came to 5% and the “onset of fall in blood pressure after intravenous injection” value was no more than 30 s.
Take “RP 224: renalase peptide amino acid 224-233, SEQ ID NO: 2, CVSIDNKKRNI (listed as Homo sapiens)”: the “protection against ischemic AKI” value in experiment [1] is “not protective”; in experiment [1] (listed as RP-224), “ineffective”. Besides, the “protection against 2 mM H2O2 necrosis” value in the experiment with HK-2 cells [3] (at 2 hrs) is listed as “protective at 2 hrs”; with HK-2 cells [3] (at 4 hrs) it was “not at 4 hrs”. The “cell survival / protection against cisplatin toxicity” value in the experiment on HK-2 cells [4] is given as “improved HK-2 cell survival”. Also, the “effect on systemic blood pressure” value with systemic blood pressure is “no effect on BP”. Besides, in the experiment with systemic blood pressure (anesthetized WT mice), the “effect on blood pressure and heart rate” value is “no effect on blood pressure and heart rate”.
With “RP A220: renalase peptide, SEQ ID NO: 5, IRFVSIDNAAANIESSEIG (listed as Homo sapiens)”, in the experiment on systemic blood pressure, the “effect on systemic blood pressure” value was “no effect on BP”.
